The record followed here is patent EP0618917B1, “1'-AMINO-2- (BENZOTHIAZOLYL)METHYL]SPIRO ISOQUINOLINE-4(1H),3'-PYRROLIDINE]-1,2',3,5'(2H)-TETRONES AND ANALOGS THEREOF USEFUL AS ALDOSE REDUCTASE INHIBITORS” (AMERICAN HOME PRODUCTS CORPORATION, priority 1991, dated 1993).

This assay relates to aldose reductase. In words: Galactitol (dulcitol) accumulation in galactosemic rats, in vivo. The note with it: percentage decrease of dulcitol accumulation vs untreated galactose-fed rats, four days; for % Lowering Galactitol Accumulation In Vivo %(D): diaphragm; for % Lowering Galactitol Accumulation In Vivo %(L): lens. From the text: The aldose reductase inhibiting property of the compounds of this invention and the utilization of the compounds in preventing, diminishing and alleviating diabetic complications are demonstrable in experiments using galactosemic rats, see Dvornik et al., Science, 182, 1146 (1973). Such experiments are exemplified hereinbelow after the listing of the following general comments pertaining to these experiments: • (a) Four or more groups of six male rats, 50-70 g, Sprague-Dawley strain, were used. The first group, the control group, was fed a mixture of laboratory chow (rodent Laboratory Chow, Purina) and glucose at 20% (w/w %) concentration. An untreated galactosemic group was fed a similar diet in which galactose was substituted for glucose. The third group was fed a diet prepared by mixing a given amount of the test compound with the galactose containing diet The concentration of galactose in the diet of the treated groups was the same as that for the untreated galactosemic group. • (b) After four days, the animals were killed by euthanization. Both the lens and sciatic nerve were removed, weighed and stored frozen for polyol determination. • (c) The polyol determination was performed by a modification of the procedure of M. Kraml and L. Cosyns, Clin. Biochem., 2, 373 (1969). Only two minor reagent changes were made: (a) the rinsing mixture was an aqueous 5% (w/v) trichloroacetic acid solution and (b) the stock solution was prepared by dissolving 25 mg of dulcitol in 100 mL of an aqueous trichloroacetic acid solution. [N.B.: For each experiment the average value found in the tissue from rats fed the glucose diet was subtracted from the individual values found in the corresponding tissue in galactose-fed rats to obtain the amount of polyol accumulated.] The aldose reductase inhibiting effects of the compounds of formula (I) were also tested by employing an in vitro testing procedure similar to that described by S. Hayman and J.H. Kinoshita, J. Biol. Chem., 240, 877 (1965). In the present case the procedure of Hayman and Kinoshita was modified in that the final chromatography step was omitted in the preparation of the enzyme from bovine lens.
The figures under L, N, and D represent the percentage decrease of dulcitol accumulation in the tissues of the lens, sciatic nerve, and diaphragm, respectively for treated rats as compared to untreated rats.

Turning to `O=C1c2ccccc2C2(CC(=O)N(N=C3CCCC3)C2=O)C(=O)N1Cc1nc2cc(C(F)(F)F)ccc2s1` (stereo not drawn) [1'-(Cyclopentylideneamino)-2-[[5-(trifluoromethyl)-2-benzothiazolyl]methyl]spiro[isoquinoline-4(1H),3'pyrrolidine]-1,2',3,5'(2H)-tetrone], where the note is “Table 2, 50 mg/kg/day in diet”, the “% Lowering Galactitol Accumulation In Vivo %(D)” value was determined as 95% and the “% Lowering Galactitol Accumulation In Vivo %(L)” value came out at 28%.
Taken in the same sequence, the figures for `CC(C)=NN1C(=O)CC2(C(=O)N(Cc3nc4cc(C(F)(F)F)ccc4s3)C(=O)c3ccccc32)C1=O` (stereo not drawn) [1'-[(1-Methylethylidene)amino]-2-[[5-(trifluoromethyl)-2-benzothiazolyl]methyl]spiro[isoquinoline]-1,2',3,5'(2H)-tetrone] were 97% and 37%.
Taken in the same sequence, the figures for `O=C1c2ccccc2C2(CC(=O)N(N=C3CCOCC3)C2=O)C(=O)N1Cc1nc2cc(C(F)(F)F)ccc2s1` (stereo not drawn) [1'-[(Tetrahydro-4H-pyran-4-ylidene)amino]-2-[[5-(trifluoromethyl)-2-benzothiazolyl]methyl]spiro[isoquinoline-4(1H),3'-pyrrolidine]-1,2',3,5'(2H)-tetrone] were 96% and 41%.
In the case of `NN1C(=O)CC2(C1=O)C(=O)N(Cc1nc3cc(C(F)(F)F)ccc3s1)C(=O)c1ccc(F)cc12` (stereo not drawn) [R^1=F, R^4=H, R^5=H], for the setting “dose 50 mg/kg/day in diet”, the “% Lowering Galactitol Accumulation In Vivo %(D)” value was 97% and the “% Lowering Galactitol Accumulation In Vivo %(L)” value is listed as 31%.
Taken in the same sequence, the figures for `CC(=O)NN1C(=O)CC2(C(=O)N(Cc3nc4cc(C(F)(F)F)ccc4s3)C(=O)c3ccccc32)C1=O` (stereo not drawn) [R^1=H, R^4=H, R^5=COCH3, N-[2-[[5-(trifluoromethyl)-2-benzothiazolyl]methyl]-2,3-dihydro-1,2',3,5'-tetraoxospiro[isoquinoline-4(1H),3'-pyrrolidine]-1'-yl] acetamide] were 97% and 40%.
For `NN1C(=O)CC2(C1=O)C(=O)N(Cc1nc3cc(C(F)(F)F)ccc3s1)C(=O)c1ccccc12` (stereo not drawn) [R^1=H, R^4=H, R^5=H, 1'-Amino-2-[[5-(trifluoromethyl)-2-benzothiazolyl]methyl]spiro[isoquinoline-4(1H),3'-pyrrolidine]-1,2',3,5'(2H)-tetrone], in that order: 96% and 61%.
